# Several values for one entry are separate records, joined by “and”; a condition that tells them apart may be missing. Identical values can stand only once.
# Legend:
# [1] = test system: rutabaga (Brassica napus var. napobrassica, BRSNA); assay: Example 5 greenhouse trials, postemergence visual injury; settings: BRSNA, 20-22 d
# [2] = test system: Nexera™ canola (Brassica napus, BRSNN-NEX); assay: as above; settings: BRSNN-NEX, 20-22 d
# [3] = test system: spring oilseed rape (Brassica napus, BRSNS); assay: Example 4 field trials (Europe), postemergence crop safety, visual phytotoxicity
# [4] = test system: Spring Argentine canola (Brassica napus, BRSNS); assay: Example 3 field trials (Canada), postemergence crop safety, visual phytotoxicity
# [5] = BRSNS, trial 1, 17DAA1, 150 g ae/ha
# [6] = BRSNS, trial 1, 32DAA1, 150 g ae/ha
smiles,measurement,setting,value
"O=C(O)c1nc(Cl)ccc1Cl [Clopyralid-olamine, 2-hydroxyethanaminium 3,6-dichloro-2-pyridinecarboxylate]",% Visual Injury Obs,[1]; 50 g ai/ha alone,0%
same,% Visual Injury Obs,[1]; 100 g ai/ha alone,0%
same,% Visual Injury Obs,[1]; 200 g ai/ha alone,0%
same,% Visual Injury Obs,[2]; 50 g ai/ha alone,0%
same,% Visual Injury Obs,[2]; 100 g ai/ha alone,0%
same,% Visual Injury Obs,[2]; 200 g ai/ha alone,0%
same,Mean % Visual Growth Inhibition,"[3]; Trial 1, 14DAA1, 125 g ae/ha alone",3.0%
same,Mean % Visual Growth Inhibition,"[3]; Trial 1, 14DAA1, 250 g ae/ha alone",3.0%
same,Mean % Visual Growth Inhibition,"[3]; Trial 2, 17DAA1, 100 g ae/ha alone",0.0%
same,Mean % Visual Growth Inhibition,"[3]; Trial 2, 17DAA1, 120 g ae/ha alone",2.3%
same,Mean % Visual Growth Inhibition,"[3]; Trial 2, 24DAA1, 100 g ae/ha alone",0.0%
same,Mean % Visual Growth Inhibition,"[3]; Trial 2, 24DAA1, 120 g ae/ha alone",2.0%
same,Mean % Visual Injury,"[4]; BRSNS, 7DAAA, 150 g ae/ha (Tables 10, 11)",0.0%
same,Mean % Visual Injury,"[4]; BRSNS, 15DAAA, 150 g ae/ha (Tables 10, 11)",1.5%
same,Mean % Visual Injury,"[4]; BRSNS, 27DAAA, 150 g ae/ha (Tables 10, 11)",1.0%
same,Mean % Visual Injury,"[4]; BRSNS, 57DAAA, 150 g ae/ha (Tables 10, 11)",2.0%
same,Mean % Visual Deformation,"[4]; BRSNS, 60DAA1, 150 g ae/ha",0.0%
same,Mean % Visual Injury,"[4]; BRSNS, trial 1, 7DAA1, 150 g ae/ha",1.0%
same,Mean % Visual Epinasty,[4]; [5],1.0%
same,Mean % Visual Injury,[4]; [5],1.3%
same,Mean % Visual Epinasty,[4]; [6],3.5%
same,Mean % Visual Injury,[4]; [6],7.0%
same,Mean % Visual Injury,"[4]; BRSNS, trial 1, 49DAA1, 150 g ae/ha",2.8%
same,Mean % Visual Injury,"[4]; BRSNS, trial 2, 8DAA1, 150 g ae/ha",1.8% and 2.0% and 1.3% and 1.4% and 1.5% and 1.0%
same,Mean % Visual Injury,"[4]; BRSNS, trial 2, 17DAA1, 150 g ae/ha",2.5%
same,Mean % Visual Epinasty,"[4]; BRSNS, trial 2, 35DAA1, 150 g ae/ha",3.5% and 2.0%
same,Mean % Visual Injury,"[4]; BRSNS, trial 2, 48DAA1, 150 g ae/ha",2.0% and 0.8%
same,Mean % Visual Epinasty,"[4]; BRSNS, trial 3, 6DAA1, 150 g ae/ha",0.0%
same,Mean % Visual Epinasty,"[4]; BRSNS, trial 3, 23DAA1, 150 g ae/ha",0.0%
same,Mean % Visual Injury,"[4]; BRSNS, trial 3, 33DAA1, 150 g ae/ha",0.5% and 1.0%
same,Mean % Visual Injury,"[4]; BRSNS, trial 3, 69DAA1, 150 g ae/ha",0.0%
same,Mean % Visual Injury,"[4]; BRSNS, trial 4, 8DAA1, 150 g ae/ha",1.5%
same,Mean % Visual Injury,"[4]; BRSNS, trial 4, 15DAA1, 150 g ae/ha",1.5%
same,Mean % Visual Epinasty,"[4]; BRSNS, trial 4, 17DAA1, 200 g ae/ha",0.0%
same,Mean % Visual Injury,"[4]; BRSNS, trial 4, 41DAA1, 150 g ae/ha",0.8%
same,Mean % Visual Injury,"[4]; BRSNS, trial 4, 82DAA1, 150 g ae/ha",0.0%
same,Mean % Visual Injury,"[4]; BRSNS, trial 5, 7DAA1, 150 g ae/ha",0.5% and 0.0% and 1.3% and 1.5%
same,Mean % Visual Injury,"[4]; BRSNS, trial 5, 15DAA1, 150 g ae/ha",0.0% and 0.5%
same,Mean % Visual Injury,"[4]; BRSNS, trial 5, 36DAA1, 150 g ae/ha",0.5%
same,Mean % Visual Injury,"[4]; BRSNS, trial 5, 79DAA1, 150 g ae/ha",0.0%
same,Mean % Visual Injury,"[4]; BRSNS, trial 6, 6DAA1, 150 g ae/ha",0.0%
same,Mean % Visual Injury,"[4]; BRSNS, trial 6, 23DAA1, 150 g ae/ha",0.0%
same,Mean % Visual Injury,"[4]; BRSNS, trial 6, 33DAA1, 150 g ae/ha",2.0%
same,Mean % Visual Injury,"[4]; BRSNS, trial 6, 59DAA1, 150 g ae/ha",3.5%
same,Mean % Visual Injury,"[4]; BRSNS, trial 7, 17DAA1, 100 g ae/ha",0.0%
same,Mean % Visual Injury,"[4]; BRSNS, trial 7, 17DAA1, 150 g ae/ha",0.0%
same,Mean % Visual Injury,"[4]; BRSNS, trial 7, 17DAA1, 200 g ae/ha",0.0%
same,Mean % Visual Injury,"[4]; BRSNS, trial 7, 27DAA1, 150 g ae/ha",0.0%
same,Mean % Visual Injury,"[4]; BRSNS, trial 7, 27DAA1, 200 g ae/ha",3.0%
same,Mean % Visual Injury,"[4]; BRSNS, trial 8, 7DAA1, 150 g ae/ha",1.5%
same,Mean % Visual Injury,"[4]; BRSNS, trial 8, 57DAA1, 150 g ae/ha",2.3%
same,Mean % Visual Injury,"[4]; BRSNS, trial 9, 27DAA1, 150 g ae/ha",1.0%
same,Mean % Visual Injury,"[4]; BRSNS, trial 9, 60DAA1, 150 g ae/ha",0.0%
same,Mean % Visual Injury,"[4]; Table 15, 7DAAA, halauxifen-methyl 5, clopyralid-olamine 150, quinclorac 101 g ae/ha, alone or mixed",0.0%
same,Mean % Visual Injury,"[4]; Table 15, 15DAAA, halauxifen-methyl 5, clopyralid-olamine 150, quinclorac 101 g ae/ha, alone or mixed",1.5%
same,Mean % Visual Injury,"[4]; Table 15, 27DAAA, halauxifen-methyl 5, clopyralid-olamine 150, quinclorac 101 g ae/ha, alone or mixed",1.0%
same,Mean % Visual Injury,"[4]; Table 15, 57DAAA, halauxifen-methyl 5, clopyralid-olamine 150, quinclorac 101 g ae/ha, alone or mixed",2.0%
same,Mean % Visual Injury,"[4]; Table 17, 7DAAA, halauxifen-methyl 5, clopyralid-olamine 150 g ae/ha alone, or both mixed with isoxadifen-ethyl 5 g ae/ha",0.0%
same,Mean % Visual Injury,"[4]; Table 17, 15DAAA, halauxifen-methyl 5, clopyralid-olamine 150 g ae/ha alone, or both mixed with isoxadifen-ethyl 5 g ae/ha",1.5%
same,Mean % Visual Injury,"[4]; Table 17, 27DAAA, halauxifen-methyl 5, clopyralid-olamine 150 g ae/ha alone, or both mixed with isoxadifen-ethyl 5 g ae/ha",1.0%
same,Mean % Visual Injury,"[4]; Table 17, 57DAAA, halauxifen-methyl 5, clopyralid-olamine 150 g ae/ha alone, or both mixed with isoxadifen-ethyl 5 g ae/ha",2.0%
same,Mean % Visual Injury,"[4]; Table 18, 8DAAA, halauxifen-methyl 5, clopyralid-olamine 150 g ae/ha, alone or mixed",0.5%
same,Mean % Visual Injury,"[4]; Table 18, 14DAAA, halauxifen-methyl 5, clopyralid-olamine 150 g ae/ha, alone or mixed",0.5%
same,Mean % Visual Injury,"[4]; Table 18, 40DAAA, halauxifen-methyl 5, clopyralid-olamine 150 g ae/ha, alone or mixed",0.0%
same,Mean % Visual Injury,"[4]; Table 18, 81DAAA, halauxifen-methyl 5, clopyralid-olamine 150 g ae/ha, alone or mixed",0.0%
same,Mean % Visual Injury,"[4]; Table 19, 8DAAA, halauxifen-methyl 5, clopyralid-olamine 150 g ae/ha alone, or both mixed with isoxadifen-ethyl 20 g ae/ha",0.5%
same,Mean % Visual Injury,"[4]; Table 19, 14DAAA, halauxifen-methyl 5, clopyralid-olamine 150 g ae/ha alone, or both mixed with isoxadifen-ethyl 20 g ae/ha",0.5%
same,Mean % Visual Injury,"[4]; Table 19, 40DAAA, halauxifen-methyl 5, clopyralid-olamine 150 g ae/ha alone, or both mixed with isoxadifen-ethyl 20 g ae/ha",0.0%
same,Mean % Visual Injury,"[4]; Table 19, 81DAAA, halauxifen-methyl 5, clopyralid-olamine 150 g ae/ha alone, or both mixed with isoxadifen-ethyl 20 g ae/ha",0.0%

# Source: patent US20170354148A1, “SAFENED HERBICIDAL COMPOSITIONS CONTAINING HALAUXIFEN AND METHODS OF USE THEREOF IN BRASSICA SPECIES” (Dow AgroSciences LLC, priority 2016, published 2017)
